Among the data in patent publication US10512626B2, “Compositions for use in treating glioblastoma” (PELOTON THERAPEUTICS, INC., priority 2015, dated 2019) are EC50 and IC50 values, retold here.

The test system of assay [1] is VEGF concentration in culture medium of 786-O cells. In words: VEGF ELISA Assay. Format: cell-based. Conditions: Homo sapiens, 786-0. The procedure:
Each concentration was plated in duplicate. About 20 hours later, medium was removed by suction and each well was supplied with 180 μL of growth medium. About 20 µl freshly-made 10× compound stocks were added to each well. […] The EC50 was calculated by GraphPad Prism using the dose-response-inhibition (four parameter) equation. The cell-seeded plate was then subjected to CellTiter-Glo luminescence cell viability assay (Promega) by adding 50 μL of Celltiter Glo reagent into each well and shaking the plate for 8 minutes at 550 rpm (Thermomixer R, Eppendorf) then the luminescence signal immediately read in a plate reader (3 second delay, 0.5 second/well integration time, Synergy 2 multi Detection Microplate reader).
On the technique in general: ELISA stands for enzyme-linked immunosorbent assay.

In assay [2] the test system is 786-O-Hif-Luc cells (luciferase gene driven by multiple HIF responsive elements). In words: Luciferase Assay (HIF reporter). The conditions noted are these: 24 h.
Method: A pool of infected cells were then selected against 2 μg/mL of puromycin (P8833, Sigma) for 10 days followed by limited dilution to select single clones.
Each concentration was tested in triplicate. After about 24 hours, luciferase activity was determined using ONE-Glo Luciferase Assay Reagent (E6110, Promega) following the manufacturer's recommended procedure. EC50 were calculated using Dotmatics software.
The target in assay [3] is T1, HIF-2α HIS TAG-PASB Domain (Homo sapiens, UniProt Q99814).
T1 construct: 100 nM HIF-2α HIS TAG-PASB Domain
In words: HIF-2α Scintillation Proximity Assay (SPA). Format: binding. The conditions noted are these: displacement of tritiated probe Compound 183. As for the experimental part:
The total assay volume was about 100 μL in the following configuration: 2 μL compound in 100% DMSO, 88 μL buffer with protein and probe and 10 μL of SPA beads. […] The percent inhibition was determined and IC50 values were calculated using the Dotmatics system based on the following equation: % inhibition=[(high control−sample)/(high control−low control)]×100.
Background: In a scintillation proximity assay essentially only radioactivity close to the scintillant gives light.

Where [4] appears, read: read-out: Mean Luciferase EC50 (nM).
Setting [5] is: read-out: Mean Luciferase EC50 (nM), 786-O-Hif-Luc cells, about 24 hours.

Read-outs that look alike come from different tables or passages of the source. Where only a bound is given, the exact number is not on record here.

T1 sequence (Q99814 240-350 limits assumed): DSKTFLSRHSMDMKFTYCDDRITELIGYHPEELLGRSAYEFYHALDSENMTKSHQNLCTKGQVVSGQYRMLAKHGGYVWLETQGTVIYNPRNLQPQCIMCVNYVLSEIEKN

By EC50 is commonly meant the concentration giving half of the maximal effect. For the molecule `O=S(=O)(c1ccc(Oc2cc(F)cc(Cl)c2)c2c1[C@H](O)CC2)C(F)F` [Compound 1], the EC50 in assay [1] was 250 to 1000 nM. Regarding `C[C@H]1C[C@@H](O)c2c(S(=O)(=O)C(F)F)ccc(Oc3cc(F)cc(Cl)c3)c21` [Compound 7a], the EC50 in assay [2] (setting [4]) fell in the range of 250 to 1000 nM.

On to `O=S(=O)(c1ccc(Oc2cc(F)cc(Cl)c2)c2c1C(O)CC2)C(F)F` (stereo not shown) [Compound 17], for which the concentration for a half-maximal effect (EC50) in assay [1] was 50 to 249 nM. With `O=S(=O)(c1ccc(Oc2cc(F)cc(Cl)c2)c(Cl)c1CO)C(F)F` [Compound 41], the EC50 in assay [1] and in assay [2] (setting [4]) was 250 to 1000 nM each time. With `N#Cc1cc(F)cc(Oc2ccc(S(=O)(=O)C(F)(F)F)c3c2CC[C@H]3O)c1` [Compound 57], the EC50 in assay [2] (setting [4]) was in the range of 50 to 249 nM. For `N#Cc1ccc(Oc2cc(F)cc(F)c2)c2c1[C@H](O)C(F)(F)C2` [Compound 67], the EC50 in assay [1] was 50 to 249 nM. The same measure, in the same setting: then `N#Cc1cc(F)cc(Oc2ccc(S(=O)(=O)C(F)F)c3c2CCC3O)c1` (stereo not shown) [Compound 78], with 250 to 1000 nM. Turning to `O=S(=O)(c1ccc(Oc2cc(F)cc(Cl)c2)c(C(F)F)c1)C(F)(F)F` [Compound 124], the EC50 in assay [1] and in assay [2] (setting [4]) was 250 to 1000 nM throughout. As for `N#Cc1cc(F)cc(Oc2ccc(S(=O)(=O)C(F)F)c3c2CC[C@H]3O)c1` [Compound 155], the EC50 in assay [1] and in assay [2] (setting [4]) was 50 to 249 nM each time. In the case of `N#Cc1cccc(Oc2ccc(S(=O)(=O)C(F)F)c3c2CC[C@H]3O)c1` [Compound 156], the EC50 in assay [2] (setting [4]) was 250 to 1000 nM. As for `CS(=O)(=O)c1ccc(Oc2cc(F)cc(C#N)c2)c2c1[C@H](O)C(F)(F)C2` [Compound 163, (S)-3-((2,2-Difluoro-1-hydroxy-7-(methylsulfonyl)-2,3-dihydro-1H-inden-4-yl)oxy)-5-fluorobenzonitrile], in assay [2] (setting [4]), the 50% effective concentration (EC50) is less than 50 nM. Same read-out and setting: under `CS(=O)(=O)c1ccc(Oc2cc(F)cc(C#N)c2)c2c1[C@H](N)C(F)(F)C2` [Compound 165] stands 50 to 249 nM. Still for that read-out and setting: under `N#Cc1cc(Cl)cc(Oc2ccc(S(=O)(=O)CF)c3c2CC(F)(F)[C@H]3O)c1` [Compound 167] stands less than 50 nM. Same read-out and setting: under `CCS(=O)(=O)c1ccc(Oc2cc(F)cc(C#N)c2)c2c1[C@H](O)C(F)(F)C2` [Compound 206] stands 50 to 249 nM. `CS(=O)(=O)c1ccc(Oc2cc(F)cc(C#N)c2)c2c1C(O)C(F)(F)C2` (stereo not shown) [Compound 223]: the concentration giving a half-maximal response (EC50) in assay [2] (setting [4]) was 50 to 249 nM. Turning to `CS(=O)(=O)c1ccc(Oc2cc(F)cc(C#N)c2)c2c1[C@@H](O)C(F)(F)C2` [Compound 226], the EC50 in assay [2] (setting [4]) is more than 1000 nM.

Consider `[2H]C([2H])([2H])S(=O)(=O)c1ccc(Oc2cc(F)cc(C#N)c2)c2c1[C@]([2H])(O)C(F)(F)C2` [Compound 229], for which the concentration for a half-maximal effect (EC50) in assay [2] (setting [4]) is less than 50 nM. Same read-out and setting: under `CS(=O)(=O)c1ccc(Oc2cc(F)cc(C#N)c2)c2c1[C@H](O)[C@H](F)C2` [Compound 231] stands less than 50 nM. Turning to `CS(=O)(=O)c1ccc(Oc2cc(F)cc(C#N)c2)c2c1C(O)C(F)C2` (stereo not shown) [Compound 232], the concentration giving a half-maximal response (EC50) in assay [2] (setting [4]) is less than 50 nM. Take `CS(=O)(=O)c1ccc(Oc2cc(Cl)cc(C#N)c2)c2c1[C@H](O)C(F)(F)C2` [Compound 234]: the EC50 in assay [1] was 50 to 249 nM; in assay [2] (setting [4]) it was less than 50 nM. As for `N#Cc1cncc(Oc2ccc(S(=O)(=O)C(F)(F)F)c3c2CC(F)(F)[C@H]3O)c1` [Compound 235], in assay [2] (setting [4]), the EC50 is less than 50 nM. Same read-out and setting: under `[2H][C@]1(O)c2c(S(C)(=O)=O)ccc(Oc3cc(F)cc(C#N)c3)c2CC1(F)F` [Compound 247] stands less than 50 nM; under `CNS(=O)(=O)c1ccc(Oc2cc(F)cc(F)c2)c2c1[C@H](O)C(F)(F)C2` [Compound 251], 50 to 249 nM. On the same count and under the same terms, then `N#Cc1cc(F)cc(Oc2ccc(S(N)(=O)=O)c3c2CC(F)(F)[C@H]3O)c1` [Compound 252], with 50 to 249 nM; and `CNS(=O)(=O)c1ccc(Oc2cc(F)cc(C#N)c2)c2c1[C@H](O)C(F)(F)C2` [Compound 254], with 50 to 249 nM; and `NS(=O)(=O)c1ccc(Oc2cc(F)cc(F)c2)c2c1[C@H](O)C(F)(F)C2` [Compound 256], with less than 50 nM. `CS(=O)(=O)c1ccc(Oc2cc(F)cc(C#N)c2)c2c1[C@H](O)[C@@H](F)C2` [Compound 271]: the EC50 in assay [2] (setting [4]) was in the range of 250 to 1000 nM. Same read-out and setting: then `CS(=O)(=O)c1ccc(Oc2cc(F)cc(C#N)c2)c2c1[C@H](O)[C@H](F)[C@@H]2F` [Compound 289, 3-[(1S,2S,3R)-2,3-difluoro-1-hydroxy-7-methylsulfonyl-indan-4-yl]oxy-5-fluoro-benzonitrile], with less than 50 nM; and `N#Cc1cc(F)cc(Oc2ccc(S(=O)(=O)C(F)(F)F)c3c2CC(F)(F)[C@H]3N)c1` [Compound 290], with 50 to 249 nM. On the same count and under the same terms, under `N#Cc1cc(F)cc(Oc2ccc(S(N)(=O)=O)c3c2[C@@H](F)C(F)(F)[C@H]3O)c1` [Compound 338] stands less than 50 nM; under `N#Cc1cc(F)cc(Oc2ccc(S(N)(=O)=O)c3c2[C@H](F)C(F)(F)[C@H]3O)c1` [Compound 339], 250 to 1000 nM. As usually defined, the IC50 is the concentration needed to halve the response being measured. High values mean weaker potency in that assay, low ones greater potency in that assay. Consider `CS(=O)(=O)c1ccc(Nc2cc(F)cc(C#N)c2)c2c1[C@H](O)C(F)(F)C2` [Compound 502], for which the IC50 in assay [3] is more than 1000 nM.

Regarding `O=S(=O)(c1ccc(O[C@H]2C[C@H](O)C2)c2c1[C@H](O)C(F)(F)C2)C(F)(F)F` [Compound 644], the half-maximal inhibitory concentration (IC50) in assay [3] was in the range of 250 to 1000 nM. Further, in assay [2] (setting [5]), the EC50 was in the range of 250 to 1000 nM. In turn, `FC(F)COc1ccc(C(F)(F)F)c2c1C[C@H](F)[C@H]2F` [Compound 697] gave an IC50 in assay [3] of 50 to 249 nM. Also, the EC50 in assay [2] (setting [5]) fell in the range of 50 to 249 nM. Regarding `CS(=O)(=O)c1ccc(OC2CC(C#N)C2)c2c1[C@H](O)C(F)(F)[C@@H]2F` (stereo partly shown) [Compound 760], the EC50 in assay [1] and in assay [2] (setting [5]) was 50 to 249 nM each time.

Regarding `CS(=O)(=O)c1ccc(O[C@H]2C[C@H](C#N)C2)c2c1[C@H](O)C(F)(F)[C@@H]2F` [Compound 760], the IC50 in assay [3] was less than 50 nM.
